Data from patent US8119646B2, “Fungicide hydroximoyl-tetrazole derivatives” (Bayer CropScience AG, priority 2006, dated 2012).
Where two headings read alike, the source gives them in different places.

Test: logP determination by HPLC on a reversed-phase column (C 18), EEC Directive 79/831 Annex V.A8
Settings: for chromatographic logP: reversed-phase C18 HPLC column
Experimental: Temperature: 40° C.; Mobile phases: 0.1% aqueous formic acid and acetonitrile; linear gradient from 10% acetonitrile to 90% acetonitrile.

[1] = HPLC reversed-phase C18, 40° C., 0.1% aqueous formic acid and acetonitrile, gradient 10% to 90% acetonitrile

SMILES | LogP [1] | further results
Cc1nnnn1C(Cc1ccccc1)=NOCc1csc(NC(=O)C2CC2)n1 [Compound 1] | 2.56 | –
CCCC(=O)Nc1nc(CON=C(Cc2ccccc2)n2nnnc2C)cs1 [Compound 2] | 2.73 | –
Cc1nnnn1C(Cc1ccccc1)=NOCc1csc(NC(=S)NCc2ccccc2)n1 [Compound 3] | 3.64 | –
Cc1nnnn1C(Cc1ccccc1)=NOCc1csc(NC(=O)NC(C)(C)C)n1 [Compound 4] | 2.91 | –
CCCCCNC(=O)Nc1nc(CON=C(Cc2ccccc2)n2nnnc2C)cs1 [Compound 5] | 3.18 | –
Cc1nnnn1C(Cc1ccccc1)=NOCc1csc(NC(=O)Cc2ccccc2)n1 [Compound 6] | 3.06 | –
Cc1nnnn1C(Cc1ccccc1)=NOCc1csc(NC(=O)C(C)(C)C)n1 [Compound 7] | 3.15 | –
CCCCCC(=O)Nc1nc(CON=C(Cc2ccccc2)n2nnnc2C)cs1 [Compound 8] | 3.3 | –
Cc1nnnn1C(Cc1ccccc1)=NOCc1csc(NC(=O)CCCc2ccccc2)n1 [Compound 9] | 3.61 | –
Cc1nnnn1C(Cc1ccccc1)=NOCc1csc(NC(=O)C2CCCC2)n1 [Compound 11] | 3.18 | –
CCCCCC(=O)Nc1cccc(CON=C(CCc2ccccc2)n2nnnc2C)n1 [Compound 17] | 3.84 | –
Cc1nnnn1/C(=N/OCc1cccc(N2C(=O)c3ccccc3C2=O)n1)C1CCCCC1 [Compound 22, O-(2-Phtalimidopyridin-6-yl)methyl-(5-methyltetrazol-1-yl)-cyclohexylmethanone oxime] | – | chromatographic logP: 3.46
Cc1nnnn1/C(=N/OCc1cccc(N)n1)C1CCCCC1 [Compound 23, O-(2-Aminopyridin-6-yl)methyl-(5-methyltetrazol-1-yl)-cyclohexylmethanone oxime] | – | chromatographic logP: 1.43
COc1ccc(C(=O)Nc2cccc(CON=C(C3CCCCC3)n3nnnc3C)n2)cc1 [Compound 24] | 3.99 | –
COc1ccc(OC(=O)Nc2cccc(CON=C(C3CCCCC3)n3nnnc3C)n2)cc1 [Compound 26] | 4.16 | –
CCCCCC(=O)Nc1cccc(CO/N=C(\C2CCCCC2)n2nnnc2C)n1 [Compound 27, O-(2-n-Pentylcarbonylaminopyridin-6-yl)methyl-(5-methyltetrazol-1-yl)-cyclohexylmethanone oxime] | – | chromatographic logP: 4.39
CCCCCOC(=O)Nc1cccc(CON=C(C2CCCCC2)n2nnnc2C)n1 [Compound 29] | 5 | –
Cc1nnnn1C(=NOCc1cccc(NC(=O)C(C)(C)C)n1)C1CCCCC1 [Compound 30] | 3.96 | –
CCCC(=O)Nc1cccc(CON=C(C2CCCCC2)n2nnnc2C)n1 [Compound 33] | 3.55 | –

SMILES | LogP [1] | further results
COCCNC(=O)Nc1cccc(CON=C(C2CCCCC2)n2nnnc2C)n1 [Compound 38] | 2.78 | –
Cc1nnnn1C(=NOCc1cccc(N)n1)C1CC1 [Compound 41] | 0.87 | –
Cc1nnnn1C(=NOCc1cccc(NC(=O)NCCc2ccc(F)cc2)n1)C1CC1 [Compound 44] | 2.5 | –
Cc1nnnn1C(=NOCc1cccc(NC(=O)NC2CC2)n1)C1CC1 [Compound 46] | 1.88 | –
Cc1nnnn1C(=NOCc1cccc(NC(=O)C2CC2)n1)C1CC1 [Compound 48] | 2.11 | –
CCCNC(=O)Nc1cccc(CON=C(C2CC2)n2nnnc2C)n1 [Compound 50] | 2.09 | –
COc1ccc(CCNC(=O)Nc2cccc(CON=C(C3CC3)n3nnnc3C)n2)cc1 [Compound 51] | 2.44 | –
Cc1nnnn1C(=NOCc1nsc(N)n1)c1cccc(Cl)c1 [Compound 65, O-(5-Amino-1,2,4-thiadiazol-3-yl)methyl-(3-chlorophenyl-5-methyltetrazol-1-yl)methanone oxime] | – | LogP: 2.17
Cc1ccc(C(=NOCc2nsc(N)n2)c2nnnn2C)cc1 [Compound 68] | 2.07 | –
Cc1ccc(C(=NOCc2nsc(NC(=O)Cc3ccccc3)n2)c2nnnn2C)cc1 [Compound 69] | 3.22 | –
CCCCCC(=O)Nc1cccc(CON=C(c2nnnn2C)C2CCCCC2)n1 [Compound 71] | 4.25 | –
Cn1nnnc1C(=NOCc1cccc(NC(=O)C2CC2)n1)C1CCCCC1 [Compound 73] | 3.2 | –
Cn1nnnc1C(=NOCc1cccc(NC(=O)C(F)(F)F)n1)C1CCCCC1 [Compound 76] | 3.69 | –
Cn1nnnc1C(=NOCc1nccc(N)n1)c1ccccc1 [Compound 77] | 0.92 | –
CCCCCC(=O)Nc1ccnc(CON=C(c2ccccc2)c2nnnn2C)n1 [Compound 78] | 3.46 | –
Cn1nnnc1C(=NOCc1nccc(NC(=O)C(C)(C)C)n1)c1ccccc1 [Compound 79] | 3.06 | –
Cn1nnnc1C(=NOCc1nccc(NC(=O)C2CC2)n1)c1ccccc1 [Compound 80] | 2.5 | –
CC(C)C(=O)Nc1ccnc(CON=C(c2ccccc2)c2nnnn2C)n1 [Compound 81] | 2.68 | –
CC(C)CC(=O)Nc1ccnc(CON=C(c2ccccc2)c2nnnn2C)n1 [Compound 82] | 3 | –
